From ChEMBL document CHEMBL5726336, “Arylquinazolines” (2017)

Biological target: DNA-dependent protein kinase catalytic subunit (Homo sapiens, UniProt P78527)
Experiment: Biochemical Assay: The kinase assay was carried out in streptavidin-coated […] microtitre flashplates. […] The reaction was stopped using 50 ul/well of 200 mM EDTA. After incubation for a further 30 min at room temperature, the liquid was removed. Each well was washed three times with 100 ul of 0.9% saline solution. A nonspecific reaction (blank value) was determined using 10 uM of an innate kinase inhibitor. The radioactivity measurement was carried out using a TopCount. IC50 values were calculated in RS1.

DNA-dependent protein kinase catalytic subunit, sequence (P78527 whole entry): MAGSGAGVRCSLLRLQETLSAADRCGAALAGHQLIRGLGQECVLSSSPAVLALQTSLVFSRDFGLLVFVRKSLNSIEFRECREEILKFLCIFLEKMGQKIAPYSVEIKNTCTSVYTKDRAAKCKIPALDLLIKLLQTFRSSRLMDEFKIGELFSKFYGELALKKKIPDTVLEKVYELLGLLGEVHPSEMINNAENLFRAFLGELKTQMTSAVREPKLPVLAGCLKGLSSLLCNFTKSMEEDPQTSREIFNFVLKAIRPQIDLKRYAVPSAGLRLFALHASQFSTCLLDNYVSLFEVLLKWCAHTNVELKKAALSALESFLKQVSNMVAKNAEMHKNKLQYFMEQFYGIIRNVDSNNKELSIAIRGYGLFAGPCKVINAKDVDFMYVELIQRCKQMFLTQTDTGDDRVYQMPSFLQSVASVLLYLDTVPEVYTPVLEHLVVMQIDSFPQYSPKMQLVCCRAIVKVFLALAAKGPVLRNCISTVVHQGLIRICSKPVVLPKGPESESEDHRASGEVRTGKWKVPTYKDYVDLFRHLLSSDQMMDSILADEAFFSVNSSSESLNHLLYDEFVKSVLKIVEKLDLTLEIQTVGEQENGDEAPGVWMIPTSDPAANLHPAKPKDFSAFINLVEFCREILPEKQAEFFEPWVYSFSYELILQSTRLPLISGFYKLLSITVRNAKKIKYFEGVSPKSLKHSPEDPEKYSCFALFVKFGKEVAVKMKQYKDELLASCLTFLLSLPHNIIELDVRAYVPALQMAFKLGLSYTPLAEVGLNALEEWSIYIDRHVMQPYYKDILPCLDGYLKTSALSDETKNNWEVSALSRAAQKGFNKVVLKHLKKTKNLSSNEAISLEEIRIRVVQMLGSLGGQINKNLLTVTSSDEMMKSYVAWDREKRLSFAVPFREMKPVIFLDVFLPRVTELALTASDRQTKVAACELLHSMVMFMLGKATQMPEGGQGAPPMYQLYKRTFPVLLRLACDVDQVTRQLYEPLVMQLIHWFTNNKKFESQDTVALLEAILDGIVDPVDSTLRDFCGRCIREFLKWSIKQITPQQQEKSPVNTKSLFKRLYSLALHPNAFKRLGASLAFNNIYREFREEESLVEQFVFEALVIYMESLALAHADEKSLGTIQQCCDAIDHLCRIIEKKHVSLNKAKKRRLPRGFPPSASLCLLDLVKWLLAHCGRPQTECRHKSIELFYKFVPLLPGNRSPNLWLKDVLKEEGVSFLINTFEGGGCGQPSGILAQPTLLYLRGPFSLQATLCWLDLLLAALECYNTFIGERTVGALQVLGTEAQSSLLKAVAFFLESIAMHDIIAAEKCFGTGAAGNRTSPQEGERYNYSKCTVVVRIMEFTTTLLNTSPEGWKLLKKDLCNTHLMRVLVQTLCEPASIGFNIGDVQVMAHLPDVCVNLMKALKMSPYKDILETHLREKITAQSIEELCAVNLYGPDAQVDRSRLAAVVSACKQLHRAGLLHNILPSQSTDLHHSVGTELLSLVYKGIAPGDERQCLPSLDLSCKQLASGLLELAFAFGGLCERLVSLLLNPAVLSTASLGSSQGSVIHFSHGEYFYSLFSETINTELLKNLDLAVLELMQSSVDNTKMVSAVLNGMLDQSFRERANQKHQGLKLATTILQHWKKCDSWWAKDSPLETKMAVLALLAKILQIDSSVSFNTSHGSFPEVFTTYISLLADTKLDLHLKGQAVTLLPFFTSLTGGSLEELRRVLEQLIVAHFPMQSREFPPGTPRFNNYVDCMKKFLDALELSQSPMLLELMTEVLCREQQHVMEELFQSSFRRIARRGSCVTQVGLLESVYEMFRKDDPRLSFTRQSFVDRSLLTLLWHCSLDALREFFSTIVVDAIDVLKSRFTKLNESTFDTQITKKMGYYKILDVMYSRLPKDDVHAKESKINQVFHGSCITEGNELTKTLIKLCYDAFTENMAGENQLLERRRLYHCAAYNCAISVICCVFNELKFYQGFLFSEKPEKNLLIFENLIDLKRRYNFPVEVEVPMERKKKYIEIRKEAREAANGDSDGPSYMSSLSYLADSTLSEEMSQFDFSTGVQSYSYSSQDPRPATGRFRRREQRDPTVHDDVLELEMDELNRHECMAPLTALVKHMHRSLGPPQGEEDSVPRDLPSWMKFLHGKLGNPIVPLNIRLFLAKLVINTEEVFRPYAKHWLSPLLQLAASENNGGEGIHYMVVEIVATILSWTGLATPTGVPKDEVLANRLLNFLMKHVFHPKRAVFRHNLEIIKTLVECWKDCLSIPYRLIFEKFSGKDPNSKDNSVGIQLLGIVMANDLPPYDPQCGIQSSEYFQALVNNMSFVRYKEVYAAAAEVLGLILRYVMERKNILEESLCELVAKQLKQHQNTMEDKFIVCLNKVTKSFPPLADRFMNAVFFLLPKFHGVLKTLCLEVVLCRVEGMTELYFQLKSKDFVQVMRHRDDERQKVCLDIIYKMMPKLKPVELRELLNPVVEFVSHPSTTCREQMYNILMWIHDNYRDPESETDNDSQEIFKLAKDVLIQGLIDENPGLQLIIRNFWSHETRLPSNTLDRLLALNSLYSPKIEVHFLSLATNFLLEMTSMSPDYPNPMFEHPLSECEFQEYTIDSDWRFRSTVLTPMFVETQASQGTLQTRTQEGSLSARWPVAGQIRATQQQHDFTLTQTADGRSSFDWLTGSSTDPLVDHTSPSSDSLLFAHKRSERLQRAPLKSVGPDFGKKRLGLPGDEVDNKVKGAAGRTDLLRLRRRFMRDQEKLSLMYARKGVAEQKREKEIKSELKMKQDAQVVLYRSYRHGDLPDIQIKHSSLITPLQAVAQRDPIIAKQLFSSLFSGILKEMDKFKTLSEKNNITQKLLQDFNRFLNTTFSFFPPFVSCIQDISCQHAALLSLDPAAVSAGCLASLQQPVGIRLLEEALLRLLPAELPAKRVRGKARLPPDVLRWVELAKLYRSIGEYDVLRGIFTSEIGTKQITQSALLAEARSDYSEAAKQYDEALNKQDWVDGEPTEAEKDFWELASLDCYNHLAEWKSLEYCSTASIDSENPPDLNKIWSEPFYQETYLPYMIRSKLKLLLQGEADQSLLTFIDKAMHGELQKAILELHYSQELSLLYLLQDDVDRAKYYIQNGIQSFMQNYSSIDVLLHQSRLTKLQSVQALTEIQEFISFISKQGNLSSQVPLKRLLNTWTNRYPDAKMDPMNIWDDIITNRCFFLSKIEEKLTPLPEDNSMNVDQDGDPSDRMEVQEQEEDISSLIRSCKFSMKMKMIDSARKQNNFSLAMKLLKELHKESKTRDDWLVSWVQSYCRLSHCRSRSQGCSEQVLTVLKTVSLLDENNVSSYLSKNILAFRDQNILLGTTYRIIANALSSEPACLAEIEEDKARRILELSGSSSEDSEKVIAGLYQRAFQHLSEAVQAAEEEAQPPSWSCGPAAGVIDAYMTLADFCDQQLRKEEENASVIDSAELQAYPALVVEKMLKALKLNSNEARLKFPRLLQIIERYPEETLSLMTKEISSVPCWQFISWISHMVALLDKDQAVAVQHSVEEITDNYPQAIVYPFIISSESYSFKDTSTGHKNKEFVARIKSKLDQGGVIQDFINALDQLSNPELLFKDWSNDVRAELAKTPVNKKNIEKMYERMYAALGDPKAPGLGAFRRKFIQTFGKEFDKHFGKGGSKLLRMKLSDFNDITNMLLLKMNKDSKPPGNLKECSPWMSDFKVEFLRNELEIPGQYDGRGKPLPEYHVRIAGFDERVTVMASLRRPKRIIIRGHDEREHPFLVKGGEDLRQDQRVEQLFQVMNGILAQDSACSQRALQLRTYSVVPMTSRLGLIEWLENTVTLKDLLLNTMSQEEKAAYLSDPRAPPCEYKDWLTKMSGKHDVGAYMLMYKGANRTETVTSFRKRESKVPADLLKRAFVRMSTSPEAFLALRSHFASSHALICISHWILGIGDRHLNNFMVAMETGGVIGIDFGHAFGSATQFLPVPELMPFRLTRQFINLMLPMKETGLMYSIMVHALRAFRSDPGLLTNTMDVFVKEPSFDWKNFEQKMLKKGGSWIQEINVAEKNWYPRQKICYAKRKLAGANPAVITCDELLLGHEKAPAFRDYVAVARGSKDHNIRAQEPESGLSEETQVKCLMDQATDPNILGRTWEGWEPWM

**Q.** With CCNCc1csc(C(O)c2cc(-c3ncnc4cc(N5CCOCC5)ccc34)c(F)cc2Cl)n1 (stereo unspecified) as the molecule, how does the IC50 read?
**A.** 7 to 30 nM
